Measurements reported in patent US20240041870A1, “METHODS OF TREATING SYSTEMIC LUPUS ERYTHEMATOSUS” (AbbVie Inc., priority 2022, published 2024).

System: anti-dsDNA autoantibodies, complement C3 and C4, IgG, IgM, circulating B cells
Experiment: Biomarker analysis in Study M19-130
Format: in vivo, human
Description: Biospecimens (whole blood, peripheral blood mononuclear cells [PBMCs], plasma, and serum) were collected at specified time points throughout the study to evaluate known and/or novel disease-related or drug-related biomarkers. Types of biomarkers may have included nucleic acids, proteins, lipids, RNA, DNA, and/or metabolites. The objective of this research was to analyze samples for biomarkers that would help to understand SLE, related conditions, and response to treatment with upadacitinib or similar compounds.
Increased circulating memory, naïve, and total B cells were also observed.
The Week 48 predefined biomarker analyses confirmed the trends observed at Week 24.

CC[C@@H]1CN(C(=O)NCC(F)(F)F)C[C@@H]1c1cnc2cnc3[nH]ccc3n12 [Upadacitinib, (3S,4R)-3-ethyl-4-(3H-imidazo[1,2-a]pyrrolo[2,3-e]pyrazin-8-yl)-N-(2,2,2-trifluoroethyl)pyrrolidine-1-carboxamide]
anti-dsDNA autoantibodies (30 mg QD, Week 48 analysis): meaningful decreases
complement C3 level (30 mg QD, Week 48 analysis): early reduction (a known effect of JAK inhibitors) followed by a progressive normalization
complement C4 level (30 mg QD, Week 48 analysis): early reduction (a known effect of JAK inhibitors) followed by a progressive normalization
circulating memory B cells (30 mg, Week 24 analysis): Increased
circulating naïve B cells (30 mg, Week 24 analysis): Increased
circulating total B cells (30 mg, Week 24 analysis): Increased
level of C3 complement compared to Baseline (30 mg, Week 24 analysis): significant decrease
level of C4 complement compared to Baseline (30 mg, Week 24 analysis): significant decrease
level of IgG (30 mg, Week 24 analysis): significant decreases
level of IgM compared to Baseline (30 mg, Week 24 analysis): significant decrease
level of anti-dsDNA autoantibodies (30 mg, Week 24 analysis): significant decreases
